Measurements reported in patent US20090024021A1, “Methods and Systems for Using Transcranial Magnetic Stimulation and Functional Brain Mapping for Examining Cortical Sensitivity, Brain Communication, and Effects of Medication” (priority 2002, published 2009).
“Also recorded” adds a separate entry of the source.

Test system: left motor cortex
Experiment: Interleaved TMS/phMRI (BOLD fMRI) with TMS over motor cortex
Format: in vivo, human
Conditions: for Voxels, effect of LTG (between day) / Z-score, effect of LTG (between day): Motor Cortex Stimulation, Placebo-LTG; for Z-score, effect of LTG (between day): p < .001
Procedure: Study design: We performed a randomized, double-blind, crossover trial involving two visits at least one week apart (FIG. 8). […] Serum LTG levels, RMTs, and interleaved TMS/phMRI images during both motor and then prefrontal TMS were then gathered for each subject. One week later they received LTG or placebo again, followed by identical RMT and interleaved TMS/phMRI studies.
Combined TMS and MRI: Immediately following RMT determination, interleaved TMS/phMRI acquisitions were performed in a Picker EDGE 1.5 T MR scanner with actively shielded magnet and high-performance gradients (27 mT/m, 72 T/m/sec) using a typical gradient echo, echo planar imaging (EPI) fMRI sequence (tip angle=90, TR=3 sec, FOV 27.0 cm, fifteen 7 mm thick slices, 1 mm gap). TMS was delivered using a Dantec MagPro with a special nonferromagnetic TMS coil of figure-8 design with an 8-meter cable (Dantec Medical A/S, Skovlunde, Denmark) and a room set up identical to prior TMS/fMRI studies from our group. TMS pulses and the fMRI sequence were interleaved as described before^21. Each cycle, illustrated in FIG. 9, consisted of six 21-sec sub-cycles—four Test and two task (100% RMT stimulation and 120% RMT stimulation). During each sub-cycle, the scanner acquired seven sets of 15 transverse images. During the task sub-cycles the TMS was triggered 100 ms after every […] image acquisition to produce a TMS stimulation rate of 1 Hz. The entire TMS/fMRI sequence lasted 882 sec (14.7 min).
TMS Coil Placement in the MRI scanner: Motor cortex: Before being placed into the MRI scanner, subjects had their resting motor threshold (RMT) quickly determined with the Dantec TMS while sitting on the MRI gantry. For many reasons (different capacitors, coil design, length of cable, MRI filter), the RMT determined with the Magstim in the BSL was not the same RMT needed inside the MRI scanner with the Dantec. After this new MRI RMT was determined, the TMS coil was rigidly mounted in the MR head coil with a specially designed TMS coil-holder, adjustable in six dimensions^22. Subjects wore swim caps and special earplugs. With the head coil on the gantry outside the scanner bore, subjects inserted their head into the head coil and adjusted their position while the TMS coil was intermittently pulsed with 100% RMT. Subjects adjusted their head until pulsing the coil caused visible movement of the contralateral (right) hand APB (3 out of 6). As soon as a subject's new MRI RMT-correct scalp location was determined, the holder's six dimensions and earplugs were locked. These head holder settings and RMT were recorded and used with the second visit. During the second MRI visit a week later, the headholder was set with the previous week's coordinates for that subject, and the previous RMT was used for the second visit.
Individual fMRI Data Analyses: MR scans were transferred into ANALYZE format and then further processed on Sun workstations (Sun Microsystems, Palo Alto, Calif.). Scans were checked using MEDx3.3 (Sensor Systems Inc, Sterling, Va.) for movement across runs, and then were coregistered to a mean image using automatic image registration. For all subjects, movement across the 14.7-minute study was less than 2 mm in all 3 axes. After correction of motion, we used a delayed boxcar model, employed a high-pass filter to remove signal drift, cardiac and respiratory effects, and other low frequency artifacts. Then, we spatially transformed each subject's data into the Talairach Atlas (input voxel dimensions, 2.1×2.1×8 mm, to output voxel dimensions, 4×4×4 mm), smoothed (4×2 mm) the data and generated z map with the Statistical Parametric Mapping (SPM) 96 module in MEDx3.3. We assumed an uncorrected F threshold UF P>0.99 to preserve as many voxels as possible for the cluster analysis.
Group fMRI Data Analyses: All subject's unthresholded z maps were combined based on comparison of condition (TMS vs Rest), intensity (100% RMT-TMS vs 120% RMT-TMS), visit (LTG vs Placebo). […]

Structure (SMILES): Nc1nnc(-c2cccc(Cl)c2Cl)c(N)n1 [LTG, Lamotrigine]
- number of active voxels in the motor cortex underneath the TMS coil, compared with placebo (120% RMT minus rest over motor cortex, 10 subjects, Wilcoxon p=0.05): significantly decreased
- Z-score, region of activation (LTG day, within day, n = 10, 100% RMT-Rest, Left cingulate gyrus (BA 32), Talairach −4,32,28): 3.97
- Z-score, region of activation (LTG day, within day, n = 10, 100% RMT-Rest, Left insula (BA 13), Talairach −36,20,12): 3.98
- Z-score, region of activation (LTG day, within day, n = 10, 100% RMT-Rest, Left middle frontal gyrus (BA 46), Talairach −44,40,24): 4.59
- Z-score, region of activation (LTG day, within day, n = 10, 100% RMT-Rest, Right insula (BA 13), Talairach 36,8,12): 4.26
- Z-score, region of activation (LTG day, within day, n = 10, 100% RMT-Rest, Right middle frontal gyrus (BA 6), Talairach 32,8,52): 4.06
- Z-score, region of activation (LTG day, within day, n = 10, 100% RMT-Rest, Right postcentral gyrus (BA 3), Talairach 52,−16,40): 3.18
- Z-score, region of activation (LTG day, within day, n = 10, 100% RMT-Rest, Right precentral gyrus, Talairach 40,−4,32): 4.31
- Region of activation (LTG day, within day, n = 10, 120% RMT-100%): No activity
- Z-score, region of activation (LTG day, within day, n = 10, 120% RMT-Rest, Left medial frontal gyrus (BA 6), Talairach −4,60,0): 4.06
- Z-score, region of activation (LTG day, within day, n = 10, 120% RMT-Rest, Left postcentral gyrus (BA 2), Talairach −36,0,4): 4.60
- Z-score, region of activation (LTG day, within day, n = 10, 120% RMT-Rest, Left superior temporal gyrus, Talairach −60,8,24): 3.14
- Z-score, region of activation (LTG day, within day, n = 10, 120% RMT-Rest, Left thalamus, Talairach −32,8,−24): 6.46
- Z-score, region of activation (LTG day, within day, n = 10, 120% RMT-Rest, Right cingulate gyrus, Talairach 4,28,−16): 4.33
- Z-score, region of activation (LTG day, within day, n = 10, 120% RMT-Rest, Right middle frontal gyrus (BA 9), Talairach 48,36,12): 4.62
- Z-score, region of activation (LTG day, within day, n = 10, 120% RMT-Rest, Right superior temporal gyrus (BA 38), Talairach 40,−12,4): 3.14
- Voxels, effect of LTG (between day) (Cerebellum, Right): 70
- Z-score, effect of LTG (between day) (Cerebellum, Right, Talairach 13,−46,−23): 3.34
- Voxels, effect of LTG (between day) (Left Precentral gyrus (underneath TMS coil)): 82
- Z-score, effect of LTG (between day) (Left Precentral gyrus (underneath TMS coil), Talairach −32,−24,52): 3.87
- Voxels, effect of LTG (between day) (Posterior Cingulate, Left): 93
- Z-score, effect of LTG (between day) (Posterior Cingulate, Left, Talairach −1,−25,50): 3.95
- Voxels, effect of LTG (between day) (Precuneus, Left): 132
- Z-score, effect of LTG (between day) (Precuneus, Left, Talairach −1,−62,50): 3.48
- TMS-induced activation in the motor cortex (underneath the coil) and other regions, compared to placebo (formal between-day analysis, group data in 10 subjects): significantly less; also recorded: reduced
- % BOLD signal change in motor cortex compared with placebo (left primary motor cortex beneath the coil, 10 subjects, ANOVA F=11.89, p=0.007): significantly decreased
